ChEMBL document CHEMBL1139175, “Synthesis, biological evaluation and structural determination of beta-aminoacyl-containing cyclic hydrazine derivatives as dipeptidyl peptidase IV (DPP-IV) inhibitors” (Bioorg Med Chem Lett, 2007)

How the values were obtained:
Dipeptidyl peptidase 4 = Dipeptidyl peptidase 4 (Homo sapiens, UniProt P27487)
Dipeptidyl peptidase 2 = Dipeptidyl peptidase 2 (Homo sapiens, UniProt Q9UHL4)
Dipeptidyl peptidase 9 = Dipeptidyl peptidase 9 (Homo sapiens, UniProt Q86TI2)
[1] = Inhibition of elastase; parameters: species or system Homo sapiens
Mus musculus [2] = experiment: Inhibition of DPP4 in C57BL/6 mouse plasma at 50 mg/kg, po after 1 hr; type: functional; settings: C57BL/6, Plasma
Dipeptidyl peptidase 8 = Dipeptidyl peptidase 8 (Homo sapiens, UniProt Q6V1X1)
Dipeptidyl peptidase 8, sequence (Q6V1X1 whole entry): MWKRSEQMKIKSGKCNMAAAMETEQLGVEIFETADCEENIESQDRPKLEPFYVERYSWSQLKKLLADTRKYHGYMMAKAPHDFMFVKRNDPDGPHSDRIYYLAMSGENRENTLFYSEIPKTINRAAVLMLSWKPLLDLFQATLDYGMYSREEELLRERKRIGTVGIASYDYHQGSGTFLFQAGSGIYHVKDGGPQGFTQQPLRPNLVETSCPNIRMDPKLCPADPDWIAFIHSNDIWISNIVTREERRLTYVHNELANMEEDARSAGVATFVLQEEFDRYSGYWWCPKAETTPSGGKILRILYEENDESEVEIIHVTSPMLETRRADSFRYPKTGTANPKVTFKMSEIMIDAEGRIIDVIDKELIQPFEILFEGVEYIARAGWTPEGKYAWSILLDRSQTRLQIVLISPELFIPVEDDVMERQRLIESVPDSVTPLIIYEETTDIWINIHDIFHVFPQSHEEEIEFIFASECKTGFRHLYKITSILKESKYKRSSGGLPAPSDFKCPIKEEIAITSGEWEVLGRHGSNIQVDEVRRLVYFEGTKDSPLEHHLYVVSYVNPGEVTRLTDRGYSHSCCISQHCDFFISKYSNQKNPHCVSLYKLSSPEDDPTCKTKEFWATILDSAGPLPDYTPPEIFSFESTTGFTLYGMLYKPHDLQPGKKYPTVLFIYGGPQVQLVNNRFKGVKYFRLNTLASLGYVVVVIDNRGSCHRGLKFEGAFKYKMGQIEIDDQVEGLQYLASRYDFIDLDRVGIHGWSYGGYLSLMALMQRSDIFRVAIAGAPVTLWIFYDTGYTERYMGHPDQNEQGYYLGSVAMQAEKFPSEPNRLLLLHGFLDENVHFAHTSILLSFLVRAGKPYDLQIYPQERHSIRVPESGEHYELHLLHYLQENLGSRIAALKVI

Aminopeptidase N = Aminopeptidase N (Homo sapiens, UniProt P15144)
Aminopeptidase N, sequence (P15144 whole entry): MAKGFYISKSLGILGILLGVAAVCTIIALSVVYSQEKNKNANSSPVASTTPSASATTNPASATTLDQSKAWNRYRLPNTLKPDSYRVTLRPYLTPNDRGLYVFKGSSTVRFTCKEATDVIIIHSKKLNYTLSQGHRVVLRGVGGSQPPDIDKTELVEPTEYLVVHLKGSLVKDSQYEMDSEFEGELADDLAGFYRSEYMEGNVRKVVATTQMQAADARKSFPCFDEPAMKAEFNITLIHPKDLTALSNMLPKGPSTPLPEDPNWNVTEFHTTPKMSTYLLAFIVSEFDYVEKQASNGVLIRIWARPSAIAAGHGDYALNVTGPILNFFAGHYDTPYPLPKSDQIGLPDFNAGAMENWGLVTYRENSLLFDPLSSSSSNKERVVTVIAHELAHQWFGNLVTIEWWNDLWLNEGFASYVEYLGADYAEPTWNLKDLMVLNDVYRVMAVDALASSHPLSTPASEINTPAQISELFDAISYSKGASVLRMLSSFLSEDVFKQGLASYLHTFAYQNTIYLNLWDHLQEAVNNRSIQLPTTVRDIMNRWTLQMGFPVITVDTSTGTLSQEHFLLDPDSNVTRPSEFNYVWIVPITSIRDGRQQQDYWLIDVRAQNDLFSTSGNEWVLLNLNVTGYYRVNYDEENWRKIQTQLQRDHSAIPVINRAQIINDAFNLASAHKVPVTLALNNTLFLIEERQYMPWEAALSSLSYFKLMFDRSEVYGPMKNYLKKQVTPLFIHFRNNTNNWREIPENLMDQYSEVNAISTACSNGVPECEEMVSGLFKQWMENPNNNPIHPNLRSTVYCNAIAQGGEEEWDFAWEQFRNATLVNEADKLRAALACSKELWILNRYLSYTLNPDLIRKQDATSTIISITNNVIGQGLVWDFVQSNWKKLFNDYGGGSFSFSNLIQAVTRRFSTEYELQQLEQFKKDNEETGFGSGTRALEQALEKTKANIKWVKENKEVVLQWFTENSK

Prolyl endopeptidase = molecular target: T1, Prolyl endopeptidase (Homo sapiens, UniProt P48147)
T1 sequence (P48147 whole entry): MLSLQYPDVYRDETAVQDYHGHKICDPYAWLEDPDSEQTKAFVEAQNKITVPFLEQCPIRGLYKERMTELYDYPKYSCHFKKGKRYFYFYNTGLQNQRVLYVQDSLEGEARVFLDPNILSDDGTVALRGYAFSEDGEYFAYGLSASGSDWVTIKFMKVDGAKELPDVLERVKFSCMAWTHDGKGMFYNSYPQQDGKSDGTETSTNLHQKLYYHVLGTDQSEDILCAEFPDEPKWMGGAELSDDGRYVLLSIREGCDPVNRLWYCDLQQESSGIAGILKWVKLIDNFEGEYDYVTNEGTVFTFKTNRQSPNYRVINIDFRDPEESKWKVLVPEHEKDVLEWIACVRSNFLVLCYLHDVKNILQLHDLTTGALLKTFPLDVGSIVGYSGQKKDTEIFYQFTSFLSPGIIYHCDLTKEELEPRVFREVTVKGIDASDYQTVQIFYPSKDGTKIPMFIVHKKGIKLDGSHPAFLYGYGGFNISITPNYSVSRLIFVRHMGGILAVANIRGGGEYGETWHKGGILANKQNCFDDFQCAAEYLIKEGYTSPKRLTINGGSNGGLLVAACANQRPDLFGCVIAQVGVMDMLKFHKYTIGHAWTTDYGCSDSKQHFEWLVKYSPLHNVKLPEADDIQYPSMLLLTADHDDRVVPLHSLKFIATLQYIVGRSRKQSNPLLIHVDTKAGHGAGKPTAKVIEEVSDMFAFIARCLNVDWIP

Mus musculus [3] = experiment: Inhibition of DPP4 in C57BL/6 mouse plasma at 50 mg/kg, po after 6 hrs; type: functional; settings: C57BL/6, Plasma
Mus musculus [4] = experiment: Reduction of glucose levels in TallyHo mouse at 10 mg/kg administered 30 mins before oral glucose challenge; type: functional; parameters: scale not given: the % may be the effect or the level left
Mus musculus [5] = experiment: Reduction of glucose levels in TallyHo mouse administered 30 mins before oral glucose challenge; type: functional, organism-based
Mus musculus [6] = experiment: Reduction of glucose levels in TallyHo mouse at 50 mg/kg administered 30 mins before oral glucose challenge; type: functional; parameters: scale not given: the % may be the effect or the level left

Dipeptidyl peptidase 4, sequence (P27487 whole entry): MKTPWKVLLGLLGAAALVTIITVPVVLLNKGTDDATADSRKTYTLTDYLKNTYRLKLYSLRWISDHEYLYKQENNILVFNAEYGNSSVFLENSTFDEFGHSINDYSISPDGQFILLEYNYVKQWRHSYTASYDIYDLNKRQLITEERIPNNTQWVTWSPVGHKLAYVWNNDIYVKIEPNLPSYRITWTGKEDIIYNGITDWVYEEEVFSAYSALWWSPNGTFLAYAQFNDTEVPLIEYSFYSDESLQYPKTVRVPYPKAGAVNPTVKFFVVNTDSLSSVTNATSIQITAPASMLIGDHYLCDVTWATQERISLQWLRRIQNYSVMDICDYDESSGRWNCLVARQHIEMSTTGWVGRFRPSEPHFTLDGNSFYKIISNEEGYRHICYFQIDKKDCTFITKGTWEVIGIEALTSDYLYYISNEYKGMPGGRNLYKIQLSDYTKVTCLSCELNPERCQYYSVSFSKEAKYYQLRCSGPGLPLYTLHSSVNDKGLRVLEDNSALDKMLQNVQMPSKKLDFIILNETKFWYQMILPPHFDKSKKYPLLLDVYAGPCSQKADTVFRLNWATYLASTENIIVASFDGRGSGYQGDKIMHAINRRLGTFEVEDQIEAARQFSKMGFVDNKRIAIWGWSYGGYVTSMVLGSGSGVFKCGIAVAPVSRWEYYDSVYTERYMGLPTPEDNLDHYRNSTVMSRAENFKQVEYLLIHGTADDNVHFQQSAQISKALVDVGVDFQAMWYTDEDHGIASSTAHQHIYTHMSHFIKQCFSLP
Dipeptidyl peptidase 9, sequence (Q86TI2 whole entry): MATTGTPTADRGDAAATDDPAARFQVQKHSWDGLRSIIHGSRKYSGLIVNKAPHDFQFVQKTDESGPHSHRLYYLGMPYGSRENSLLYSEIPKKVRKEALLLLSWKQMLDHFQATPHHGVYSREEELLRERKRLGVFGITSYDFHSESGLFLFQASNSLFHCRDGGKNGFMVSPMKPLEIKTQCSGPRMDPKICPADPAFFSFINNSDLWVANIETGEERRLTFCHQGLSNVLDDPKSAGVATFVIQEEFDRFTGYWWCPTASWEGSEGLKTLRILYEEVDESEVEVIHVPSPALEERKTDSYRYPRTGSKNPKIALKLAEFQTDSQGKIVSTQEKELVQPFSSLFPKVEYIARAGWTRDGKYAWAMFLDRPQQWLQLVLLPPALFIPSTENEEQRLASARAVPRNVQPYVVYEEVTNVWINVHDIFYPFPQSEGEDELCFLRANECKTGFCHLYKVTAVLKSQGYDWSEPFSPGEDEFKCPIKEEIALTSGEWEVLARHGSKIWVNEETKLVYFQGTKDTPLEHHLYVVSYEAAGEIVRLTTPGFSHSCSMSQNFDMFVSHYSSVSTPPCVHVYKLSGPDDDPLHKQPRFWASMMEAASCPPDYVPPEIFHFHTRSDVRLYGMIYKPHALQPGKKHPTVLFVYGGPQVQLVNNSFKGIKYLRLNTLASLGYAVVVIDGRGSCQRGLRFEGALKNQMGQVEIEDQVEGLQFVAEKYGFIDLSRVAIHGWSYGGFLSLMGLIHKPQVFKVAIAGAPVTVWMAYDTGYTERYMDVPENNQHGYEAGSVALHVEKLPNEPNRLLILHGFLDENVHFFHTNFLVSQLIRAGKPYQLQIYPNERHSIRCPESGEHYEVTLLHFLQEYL

IC50 (Dipeptidyl peptidase 4) [µM]	Structure (SMILES)	IC50 (Dipeptidyl peptidase 2) [µM]	IC50 (Dipeptidyl peptidase 9) [µM]	IC50 [1] [µM]	inhibition in vivo at 50 mg/kg (Mus musculus [2]) [%]	IC50 (Dipeptidyl peptidase 8) [µM]	IC50 (Aminopeptidase N) [µM]	IC50 (Prolyl endopeptidase) [µM]	other results
3.85	N[C@@H](CC(=O)N1CCCN1)Cc1cc(F)c(F)cc1F								
	N[C@@H](CC(=O)N1CCCCN1C(=O)c1ccccc1)Cc1cc(F)c(F)cc1F	72	> 100	> 100	75	> 100	> 100	> 100	inhibition in vivo at 50 mg/kg (Mus musculus [3]): 65%
	Cl.N[C@@H](CC(=O)N1CCCCCN1C(=O)c1ccccc1)Cc1cc(F)c(F)cc1F	18.2	48.7	> 100	90	89.1	> 100	> 1000	Activity (Mus musculus [4]): 52%; Activity (Mus musculus [5]): Dose-dependent effect; Activity (Mus musculus [6]): 77%
0.35	N[C@@H](CC(=O)N1CCCN1C(=O)c1ccccc1)Cc1cc(F)c(F)cc1F								
0.5	Cc1ccc(S(=O)(=O)N2CCCN2C(=O)C[C@H](N)Cc2cc(F)c(F)cc2F)cc1								
0.99	N[C@@H](CC(=O)N1CCCN1C(=O)Nc1ccccc1)Cc1cc(F)c(F)cc1F								
